According to patent US20150238487A1, “NOVEL ERGOLINE DERIVATIVES AND USES THEREOF” (MAP Pharmaceuticals, Inc., priority 2012, published 2015):

Assays:
Serotonin 5-HT3 = target: T1, Serotonin 5-HT3 (Homo sapiens, UniProt P46098); assay: Aequorin assay, Serotonin 5-HT3; format: cell-based; conditions: antagonism, HEK-293 mAeq
T1 construct: expressed in transfected cells; host or cells: HEK-293 mAeq
Experimental: (§1) Receptor […] activity assays were performed using 8′OH-2-CF3-dihydroergotamine (8′OH-2-CF3-DHE). Table 1 summarizes the cell lines (CHO-K1/HEK293 transfected with relevant human receptor) and the assays performed to detect any agonist or antagonist activity.
(§2) Aequorin assays were conducted to monitor activity for 8′OH-2CF3-dihydroergotamine (8′OH-2CF3-DHE) against the receptors indicated in Table 1 above (except for mGlu3 and mGlu5). CHO-K1 cells coexpressing mitochondrial apoaequorin and the recombinant human receptor of interest were grown to mid-log phase in culture media without antibiotics and then detached with PBS-EDTA, centrifuged and resuspended in assay buffer (DMEM/HAM's F12 with HEPES, without phenol red+0.1% BSA, protease free) at a concentration of 1×10^6 cell/mL. […]
(§3) 50 μL of the cell suspension was mixed with 50 μL of test or reference agonist in a 96-well plate. The resulting emission of light was recorded using Hamamatsu Functional Drug Screening System 6000 (FDSS 6000) luminometer. […]
(§4) To standardize the emission of recorded light (and determine of the “100% signal”) across plates and across different experiments, some wells contained 100 μM digitonin or a saturating concentration of ATP (20 μM).

[1] = tested on: Somatostatin (SST1 ~ SSTS); assay: GTPγ[35S] assay, Somatostatin receptors; format: biochemical, human; conditions: CHO-K1 membranes
Experimental: as §1
(§5) GTPγS studies were conducted to monitor agonist activity for 8′OH-2CF3-dihydroergotamine (8′OH-2CF3-DHE) against the receptors indicated in Table 1 above. Reagents used were the following: Assay buffer (20 mM HEPES, pH 7.4; 100 mM NaCl; 10 μg/mL saponin; 30 mM MgCl2); Membranes (recombinant human receptor membrane extracts were thawed on ice and diluted in assay buffer to give 1000 μg/mL ([…]) and kept on ice); GDP (diluted in assay buffer to give 30 μM solution (3 μM final concentration); beads (PVT-WGA (Amersham, RPNQ001), diluted in assay buffer at 25 mg/mL (0.25 mg/10 μL)); GTPγ^35S (Perkin Elmer, NEG030X), diluted in assay buffer to give 0.1 nM (final concentration); and ligand (agonist/antagonist diluted in assay buffer).
(§6) Membranes were mixed with GDP (1:1) and incubated for at least 15 minutes on ice. In parallel GTPγ^35S was mixed with the beads (1:1) just before starting the reaction. […] The plates were then centrifuged for 10 minutes at 2000 rpm and incubated at room temperature for 1 hour and counted for 1 min/well with a Perkin Elmer TopCount reader.

Opioid (OP1/OP2/OP3) = assay: GTPγ[35S] assay, Opioid receptors; format: biochemical, human; conditions: CHO-K1 membranes
Experimental: as §1, §5, §6

Adrenergic α1A = target: T2, Adrenergic α1A (Homo sapiens, UniProt P35348); assay: Aequorin assay, Adrenergic α1A; format: cell-based; conditions: antagonism, CHO-K1 mAeq, read-out: Activity (Antagonism: IC50), Adrenergic a1A
T2 construct: expressed in transfected cells; host or cells: CHO-K1 mAeq
Experimental: as §1, §2, §3, §4

Calcitonin (CGRP) = target: T3, Calcitonin (CGRP) (Homo sapiens, UniProt O60894+Q16602); assay: Aequorin assay, CGRP receptor; format: cell-based; conditions: CHO-AEQ
T3 construct: expressed in transfected cells; host or cells: CHO-AEQ (CHO-K1 coexpressing mitochondrial apoaequorin)
Experimental: as §1, §2, §3, §4

Serotonin 5-HT1F = target: T4, Serotonin 5-HT1F (Homo sapiens, UniProt P30939); assay: cAMP HTRF assay, Serotonin 5-HT1F; format: cell-based; conditions: CHO-K1, cAMP
T4 construct: expressed in transfected cells; host or cells: CHO-K1
Experimental: as §1
cAMP HTRF (Gi) studies were conducted to monitor activity for 8′OH-2CF3-dihydroergotamine (8′OH-2CF3-DHE) against the receptors indicated in Table 1 above. Cells expressing the human recombinant receptor of interest were grown in media without antibiotic and detached by gentle flushing with PBS-EDTA (5 mM EDTA), recovered by centrifugation and resuspended in assay buffer (KRH: 5 mM KCl, 1.25 mM MgSO4, 124 mM NaCl, 25 mM HEPES, 13.3 mM glucose, 1.25 mM KH2PO4, 1.45 mM CaCl2, 0.5 g/L BSA). Dose response curves were performed in parallel with the reference compounds. For agonist tests (96-well plates), 12 μL of cells was mixed with 6 μL of the test compound at increasing concentrations and 6 μL of forskolin and then incubated for 30 minutes at room temperature. Lysis buffer was added and after a 1 hour incubation, cAMP concentrations was determined according to the manufacturer specification with the HTRF kit. […] Lysis buffer was added and after a 1 hour incubation, cAMP concentrations were determined according to the manufacturer specification, with the HTRF kit.

T4 sequence (P30939 whole entry): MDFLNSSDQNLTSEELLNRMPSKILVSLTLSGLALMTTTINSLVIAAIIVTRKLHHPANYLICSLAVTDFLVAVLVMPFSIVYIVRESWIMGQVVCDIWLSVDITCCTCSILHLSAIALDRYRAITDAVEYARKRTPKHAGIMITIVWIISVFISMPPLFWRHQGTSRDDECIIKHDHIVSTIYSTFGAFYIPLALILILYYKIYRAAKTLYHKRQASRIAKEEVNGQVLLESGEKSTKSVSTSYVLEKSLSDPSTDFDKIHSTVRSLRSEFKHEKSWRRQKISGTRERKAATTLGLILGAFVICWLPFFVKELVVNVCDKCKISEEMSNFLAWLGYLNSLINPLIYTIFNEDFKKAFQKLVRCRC
T3 sequence (Q16602 23-461): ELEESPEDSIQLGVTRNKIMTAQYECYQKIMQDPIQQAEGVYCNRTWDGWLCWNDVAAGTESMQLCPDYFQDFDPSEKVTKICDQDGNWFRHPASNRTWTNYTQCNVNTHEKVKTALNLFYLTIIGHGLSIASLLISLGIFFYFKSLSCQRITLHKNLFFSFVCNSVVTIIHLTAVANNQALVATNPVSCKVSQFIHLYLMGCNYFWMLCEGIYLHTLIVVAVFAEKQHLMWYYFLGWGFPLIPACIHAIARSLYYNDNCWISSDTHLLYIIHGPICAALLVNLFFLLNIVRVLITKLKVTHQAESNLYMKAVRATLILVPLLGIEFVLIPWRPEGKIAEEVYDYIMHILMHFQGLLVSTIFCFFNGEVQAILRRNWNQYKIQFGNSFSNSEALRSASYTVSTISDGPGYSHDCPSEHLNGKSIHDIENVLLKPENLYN
T3 sequence (O60894 27-148 partner): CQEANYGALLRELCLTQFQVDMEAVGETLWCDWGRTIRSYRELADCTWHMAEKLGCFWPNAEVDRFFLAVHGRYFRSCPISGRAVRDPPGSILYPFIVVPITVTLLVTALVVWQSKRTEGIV
T2 sequence (P35348 whole entry): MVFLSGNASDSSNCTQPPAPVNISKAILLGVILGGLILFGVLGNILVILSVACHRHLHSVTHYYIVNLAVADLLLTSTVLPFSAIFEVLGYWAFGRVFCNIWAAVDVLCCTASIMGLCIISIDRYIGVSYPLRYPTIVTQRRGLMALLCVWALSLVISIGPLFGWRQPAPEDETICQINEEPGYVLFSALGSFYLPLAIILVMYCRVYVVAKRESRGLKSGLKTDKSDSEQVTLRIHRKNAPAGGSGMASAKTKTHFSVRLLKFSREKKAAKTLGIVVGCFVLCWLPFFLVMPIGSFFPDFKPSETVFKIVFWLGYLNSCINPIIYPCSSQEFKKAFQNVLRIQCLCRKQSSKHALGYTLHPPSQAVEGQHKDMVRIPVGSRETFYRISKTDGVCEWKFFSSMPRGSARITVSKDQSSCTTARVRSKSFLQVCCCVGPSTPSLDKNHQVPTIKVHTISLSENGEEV
T1 sequence (P46098 24-478): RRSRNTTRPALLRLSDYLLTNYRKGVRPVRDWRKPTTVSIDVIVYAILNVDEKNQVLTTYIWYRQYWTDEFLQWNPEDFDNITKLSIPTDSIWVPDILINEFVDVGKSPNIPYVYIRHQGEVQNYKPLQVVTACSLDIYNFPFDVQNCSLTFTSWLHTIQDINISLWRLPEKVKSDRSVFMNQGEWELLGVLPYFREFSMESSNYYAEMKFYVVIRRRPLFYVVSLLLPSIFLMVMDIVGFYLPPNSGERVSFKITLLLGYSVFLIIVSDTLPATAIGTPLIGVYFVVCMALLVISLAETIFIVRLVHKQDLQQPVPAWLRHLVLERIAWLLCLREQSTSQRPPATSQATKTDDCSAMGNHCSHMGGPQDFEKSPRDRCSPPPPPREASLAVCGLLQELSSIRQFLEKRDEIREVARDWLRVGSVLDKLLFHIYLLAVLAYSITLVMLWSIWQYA

## CN1C[C@H](C(=O)N[C@]2(C)O[C@@]3(O)[C@@H]4CC[C@@H](O)N4C(=O)[C@H](Cc4ccccc4)N3C2=O)C[C@@H]2c3cccc4[nH]c(C(F)(F)F)c(c34)C[C@H]21 [8′OH-2-CF3-DHE, 8′-Hydroxy-2-CF3-dihydroergotamine]
Serotonin 5-HT3
  IC50: 2760 nM
[1]
  Activity (Agonism: EC50; Antagonism: IC50), Somatostatin (SST1 ~ SSTS): Inactive
Opioid (OP1/OP2/OP3)
  Activity (Agonism: EC50; Antagonism: IC50), Opioid (OP1/OP2/OP3): Inactive
Adrenergic α1A
  IC50: 39.5 nM
Calcitonin (CGRP)
  Activity (Agonism: EC50; Antagonism: IC50), Calcitonin (CGRP): Inactive
Serotonin 5-HT1F
  Activity (Agonism: EC50; Antagonism: IC50), 5-HT1F: Inactive
